For 22 compounds, IC50 and inhibition results are on record in patent US11186588B2 (AYUMI PHARMACEUTICAL CORPORATION, priority 2017, dated 2021).

Assay [1] relates to NF-κB. The experiment in a line: NF-κB reporter gene assay (TNF-α stimulated A549/NF-κB-luc cells). It counts as cell-based. Conditions: Homo sapiens, TNF-α stimulation. The procedure: In order to evaluate NF-κB inhibitory activity of the present compounds, NF-κB reporter gene assay was carried out. The specific method is described below.
Gene recombinant human TNF-α (available from R&D systems, Cat No. 210-TA) was dissolved in D-PBS(−) (available from Wako Pure Chemical Industries, Ltd., Cat No. 293-72601) to prepare 100 μg/mL of TNF-α solution stock solution. 100 μg/mL of the TNF-α solution stock solution was diluted with the culture medium to prepare 10 ng/mL of TNF-α solution.
A549/NF-κB-luc cells (available from Panomics, Cat No. LR0051) were prepared at 375,000 cells/mL in the culture medium. The 375,000 cells/mL A549/NF-κB-luc cell suspension was seeded at 80 μL each on a white 96-well plate (available from Greiner, Cat No. 655073). One hour after seeding the cells, 10 μL of 2% DMSO solution (control) and each compound solution in each concentration were added to each well of the 96-well plate. One hour after the addition of each compound solution, 10 ng/mL of the TNF-α solution (10 μL) was added to each well of the 96-well plate. Three hours after the addition of 10 ng/mL of the TNF-α solution, 100 μL of Steady-Glo reagent (available from Promega, Cat No. E2510) was added to each well of the 96-well plate. After 30 to 90 minutes of the addition of the Steady-Glo reagent, the luminescence intensity of each well was detected by EnVision multilabel counter (available from PerkinElmer).
NF-κB inhibition rate (%) was calculated by the following equation using Microsoft EXCEL 2010. NF-κB inhibition rate (%)=100−{(luminescence intensity average value of each compound added well)−(average value of luminescence intensity of blank well))/(average value of luminescence intensity of control well)−(average value of luminescence intensity of blank well)}×100 In addition, IC50 values were calculated from the calculated NF-κB inhibition rate (%) using curve fitting software XLfit (available from IDBS).
A general note: In a reporter assay the amount or activity of a reporter protein is the signal.

Assay [2] addresses Recombinant BRD4 (44-168) protein (Homo sapiens (Human), UniProt O60885). The experiment in a line: BRD4-H4KAc4 binding assay (amplified luminescence proximity homogeneous assay, AlphaScreen). The settings on record: 10 uM. The protocol: In order to evaluate BRD4 inhibitory activity of the present compounds, BRD4-H4KAc4 binding assay was carried out by an amplified luminescence proximity homogeneous assay. The specific method is described below.
H4KAc4 peptide (available from Toray Research Center, Inc., sequence SGRGK(Ac)GGK(Ac)GLGK(Ac)GGAK(Ac)RHR-K(Biotin)-NH2) was dissolved in 1×Assay buffer to prepare 1 mM H4KAc4 peptide stock solution.
N-terminal His tag/C-terminal FLAG tag-fused type Recombinant BRD4 (44-168) protein (available from Active Motif, Cat No. 31380) was diluted with 1×Assay buffer to 1,250-fold to prepare 250 nM BRD4 solution.
1% DMSO solution (control) and 2 μL of each compound solution in each concentration were added to each well of AlphaPlate-384 (from PerkinElmer, Cat No. 6008350). Next, 2 μL of 250 nM BRD4 solution was added to each well of AlphaPlate-384. Further, 2 μL of 250 nM H4KAc4 peptide solution was added to each well of AlphaPlate-384. After addition of the 250 nM H4KAc4 peptide solution, the mixture was allowed to stand at room temperature under light shielding for 60 minutes, and 4 μL of AlphaScreen beads were added to each well of AlphaPlate-384. After addition of the AlphaScreen beads, the mixture was allowed to stand at room temperature under light shielding for 60 minutes, emission at 520-620 nm upon excitation at 680 nm was detected by EnVision multilabel counter (from PerkinElmer), and binding of BRD4 and H4KAc4 was detected. Incidentally, the evaluation of each compound was carried out in duplicate (2 well per 1 compound).
The BRD4 inhibition rate (%) was calculated by the following equation using Microsoft EXCEL 2010. BRD4 inhibition rate (%)=100−{(luminescence intensity average value of each compound added well)−(average value of luminescence intensity of blank well))/(average value of luminescence intensity of control well)−(average value of luminescence intensity of blank well)}×100
Background: Bead proximity is the source of the signal in Alpha formats.

A word on the IC50: it is the concentration that inhibits the measured activity by half. The inhibition is how much of the control response was suppressed. For `Cc1sc2c(c1C)C(c1ccc(Cl)cc1)=NN(Cc1ccccc1)c1nnc(C)n1-2` [Example 3, 6-benzyl-4-(4-chlorophenyl)-2,3,9-trimethyl-6H-thieno[2,3-e][1,2,4]triazolo[3,4-c][1,2,4]triazepine], in assay [1], the 50% inhibitory concentration (IC50) was 51.9 nM. Also, the inhibition at 10 µM in assay [2] was 100%.

`COc1cccc(CN2N=C(c3ccc(Cl)cc3)c3c(sc(C)c3C)-n3c(C)nnc32)c1` [Example 6, 4-(4-chlorophenyl)-6-(3-methoxybenzyl)-2,3,9-trimethyl-6H-thieno[2,3-e][1,2,4]triazolo[3,4-c][1,2,4]triazepine] returned an IC50 in assay [1] of 86.4 nM. The inhibition at 10 µM in assay [2] was found to be 100%.

As to `Cc1sc2c(c1C)C(c1ccc(Cl)cc1)=NN(Cc1ccc(C(C)(C)C)cc1)c1nnc(C)n1-2` [Example 7, 6-(4-(tert-butyl)benzyl)-4-(4-chlorophenyl)-2,3,9-trimethyl-6H-thieno[2,3-e][1,2,4]triazolo[3,4-c][1,2,4]triazepine], the midpoint of inhibition in assay [1], the IC50, lay at 735 nM. For the same compound, the inhibition at 10 µM in assay [2] was determined as 99.8%.

Turning to `Cc1sc2c(c1C)C(c1ccc(Cl)cc1)=NN(Cc1ccccc1F)c1nnc(C)n1-2` [Example 8, 4-(4-chlorophenyl)-6-(2-fluorobenzyl)-2,3,9-trimethyl-6H-thieno[2,3-e][1,2,4]triazolo[3,4-c][1,2,4]triazepine], half-maximal inhibition in assay [1] (IC50) required 104 nM. Also, the inhibition at 10 µM in assay [2] was 100%.

In the case of `Cc1sc2c(c1C)C(c1ccc(Cl)cc1)=NN(Cc1cccc(F)c1)c1nnc(C)n1-2` [Example 9, 4-(4-chlorophenyl)-6-(3-fluorobenzyl)-2,3,9-trimethyl-6H-thieno[2,3-e][1,2,4]triazolo[3,4-c][1,2,4]triazepine], in assay [1], the half-inhibitory concentration (IC50) stood at 17.6 nM. Further, the inhibition at 10 µM in assay [2] was found to be 100%.

`Cc1sc2c(c1C)C(c1ccc(Cl)cc1)=NN(Cc1ccccc1Cl)c1nnc(C)n1-2` [Example 10, 6-(2-chlorobenzyl)-4-(4-chlorophenyl)-2,3,9-trimethyl-6H-thieno[2,3-e][1,2,4]triazolo[3,4-c][1,2,4]triazepine] showed an IC50 in assay [1] of 192 nM. Moreover, in assay [2], the inhibition at 10 µM worked out at 100%.

On to `Cc1ccccc1CN1N=C(c2ccc(Cl)cc2)c2c(sc(C)c2C)-n2c(C)nnc21` [Example 11, 4-(4-chlorophenyl)-2,3,9-trimethyl-6-(2-methylbenzyl)-6H-thieno[2,3-e][1,2,4]triazolo[3,4-c][1,2,4]triazepine], for which, in assay [1], half-maximal inhibition (IC50) was put at 291 nM. In assay [2], the inhibition at 10 µM was found to be 100%.

As for `Cc1cccc(CN2N=C(c3ccc(Cl)cc3)c3c(sc(C)c3C)-n3c(C)nnc32)c1` [Example 12, 4-(4-chlorophenyl)-2,3,9-trimethyl-6-(3-methylbenzyl)-6H-thieno[2,3-e][1,2,4]triazolo[3,4-c][1,2,4]triazepine], the IC50 in assay [1] is 32.1 nM. Further, the inhibition at 10 µM in assay [2] amounted to 100%.

As for `Cc1ccc(CN2N=C(c3ccc(Cl)cc3)c3c(sc(C)c3C)-n3c(C)nnc32)cc1` [Example 13, 4-(4-chlorophenyl)-2,3,9-trimethyl-6-(4-methylbenzyl)-6H-thieno[2,3-e][1,2,4]triazolo[3,4-c][1,2,4]triazepine], the IC50 in assay [1] turned out to be 233 nM. For the same compound, the inhibition at 10 µM in assay [2] was determined as 100%.

In assay [1], `Cc1sc2c(c1C)C(c1ccc(Cl)cc1)=NN(Cc1ccc(C(F)(F)F)cc1)c1nnc(C)n1-2` [Example 14, 4-(4-chlorophenyl)-2,3,9-trimethyl-6-(4-(trifluoromethyl)benzyl)-6H-thieno[2,3-e][1,2,4]triazolo[3,4-c][1,2,4]triazepine] showed an IC50 of 276 nM. Further, the inhibition at 10 µM in assay [2] was 100%.

`Cc1sc2c(c1C)C(c1ccc(Cl)cc1)=NN(Cc1cccc(Cl)c1)c1nnc(C)n1-2` [Example 16, 6-(3-chlorobenzyl)-4-(4-chlorophenyl)-2,3,9-trimethyl-6H-thieno[2,3-e][1,2,4]triazolo[3,4-c][1,2,4]triazepine] returned an IC50 in assay [1] of 77.5 nM. Moreover, the inhibition at 10 µM in assay [2] is 100%.

On to `Cc1sc2c(c1C)C(c1ccc(Cl)cc1)=NN(Cc1cccc(C(F)(F)F)c1)c1nnc(C)n1-2` [Example 18, 4-(4-chlorophenyl)-2,3,9-trimethyl-6-(3-(trifluoromethyl)benzyl)-6H-thieno[2,3-e][1,2,4]triazolo[3,4-c][1,2,4]triazepine], for which the midpoint of inhibition in assay [1], the IC50, lay at 144 nM. Further, in assay [2], the inhibition at 10 µM turned out to be 100%.

As for `Cc1sc2c(c1C)C(c1ccc(Cl)cc1)=NN(CCc1ccccc1)c1nnc(C)n1-2` [Example 19, 4-(4-chlorophenyl)-2,3,9-trimethyl-6-phenethyl-6H-thieno[2,3-e][1,2,4]triazolo[3,4-c][1,2,4]triazepine], the IC50 in assay [1] turned out to be 1320 nM. Further, the inhibition at 10 µM in assay [2] was 96.6%.

Consider `Cc1sc2c(c1C)C(c1ccc(Cl)cc1)=NN(Cc1cccc(F)n1)c1nnc(C)n1-2` [Example 21, 4-(4-chlorophenyl)-6-((6-fluoropyridin-2-yl)methyl)-2,3,9-trimethyl-6H-thieno[2,3-e][1,2,4]triazolo[3,4-c][1,2,4]triazepine], for which it took 30.3 nM to reach half-maximal inhibition in assay [1] (IC50). The inhibition at 10 µM in assay [2] amounted to 100%.

In the case of `Cc1sc2c(c1C)C(c1ccc(Cl)cc1)=NN(Cc1ncccc1F)c1nnc(C)n1-2` [Example 23, 4-(4-chlorophenyl)-6-((3-fluoropyridin-2-yl)methyl)-2,3,9-trimethyl-6H-thieno[2,3-e][1,2,4]triazolo[3,4-c][1,2,4]triazepine], the IC50 in assay [1] came out at 158 nM. Further, the inhibition at 10 µM in assay [2] came out at 100%.

In assay [1], `CC(=O)Nc1ccc(C2=NN(Cc3cncc(O)c3)c3nnc(C)n3-c3sc(C)c(C)c32)cc1` [Example 99, N-(4-(6-((5-hydroxypyridin-3-yl)methyl)-2,3,9-trimethyl-6H-thieno[2,3-e][1,2,4]triazolo[3,4-c][1,2,4]triazepin-4-yl)phenyl)acetamide] displayed an IC50 of 1640 nM.

`Cc1sc2c(c1C)C(c1ccc(N)cc1)=NN(Cc1cncc(O)c1)c1nnc(C)n1-2` [Example 103, 5-((4-(4-aminophenyl)-2,3,9-trimethyl-6H-thieno[2,3-e][1,2,4]triazolo[3,4-c][1,2,4]triazepin-6-yl)methyl)pyridin-3-ol]: it took 289 nM to reach half-maximal inhibition in assay [1] (IC50).

For the compound `Cc1sc2c(c1C)C(c1ccc(N)cc1)=NN(Cc1ccc(O)nc1)c1nnc(C)n1-2` [Example 104], the midpoint of inhibition in assay [1], the IC50, lay at 3940 nM. Compared with the last compound, the IC50 is about 14-fold higher.

In assay [1], `Cc1sc2c(c1C)C(c1ccc(N)cc1)=NN(Cc1cccnc1)c1nnc(CO)n1-2` [Example 105, (4-(4-aminophenyl)-2,3-dimethyl-6-(pyridin-3-ylmethyl)-6H-thieno[2,3-e][1,2,4]triazolo[3,4-c][1,2,4]triazepin-9-yl)methanol] gave a half-maximal inhibitory concentration (IC50) of 4830 nM.

Turning to `Cc1c(CO)sc2c1C(c1ccc(N)cc1)=NN(Cc1cccnc1)c1nnc(C)n1-2` [Example 106, (4-(4-aminophenyl)-3,9-dimethyl-6-(pyridin-3-ylmethyl)-6H-thieno[2,3-e][1,2,4]triazolo[3,4-c][1,2,4]triazepin-2-yl)methanol], in assay [1], the IC50 came to 1840 nM.

The compound `Cc1sc2c(c1CO)C(c1ccc(N)cc1)=NN(Cc1cccnc1)c1nnc(C)n1-2` [Example 107, (4-(4-aminophenyl)-2,9-dimethyl-6-(pyridin-3-ylmethyl)-6H-thieno[2,3-e][1,2,4]triazolo[3,4-c][1,2,4]triazepin-3-yl)methanol] came in with a half-inhibitory concentration (IC50) in assay [1] of 2320 nM.

With `Cc1nnc2n1-c1scc(CCO)c1C(c1ccc(N)cc1)=NN2Cc1cccnc1` [Example 108, 2-(4-(4-aminophenyl)-9-methyl-6-(pyridin-3-ylmethyl)-6H-thieno[2,3-e][1,2,4]triazolo[3,4-c][1,2,4]triazepin-3-yl)ethane-1-ol], it took 4020 nM to reach half-maximal inhibition in assay [1] (IC50).
